Results: BindingDB's records for doi:10.1021/acs.jmedchem.8b01596 (China Pharmaceutical University, 2019)

Target: Hypoxia-inducible factor 1-alpha (Homo sapiens, UniProt Q16665)
Assay: Inhibition of HIF-1alpha in human HeLa cells after 6 hrs by luciferase reporter gene assay

Chain of Hypoxia-inducible factor 1-alpha (Q16665 whole entry): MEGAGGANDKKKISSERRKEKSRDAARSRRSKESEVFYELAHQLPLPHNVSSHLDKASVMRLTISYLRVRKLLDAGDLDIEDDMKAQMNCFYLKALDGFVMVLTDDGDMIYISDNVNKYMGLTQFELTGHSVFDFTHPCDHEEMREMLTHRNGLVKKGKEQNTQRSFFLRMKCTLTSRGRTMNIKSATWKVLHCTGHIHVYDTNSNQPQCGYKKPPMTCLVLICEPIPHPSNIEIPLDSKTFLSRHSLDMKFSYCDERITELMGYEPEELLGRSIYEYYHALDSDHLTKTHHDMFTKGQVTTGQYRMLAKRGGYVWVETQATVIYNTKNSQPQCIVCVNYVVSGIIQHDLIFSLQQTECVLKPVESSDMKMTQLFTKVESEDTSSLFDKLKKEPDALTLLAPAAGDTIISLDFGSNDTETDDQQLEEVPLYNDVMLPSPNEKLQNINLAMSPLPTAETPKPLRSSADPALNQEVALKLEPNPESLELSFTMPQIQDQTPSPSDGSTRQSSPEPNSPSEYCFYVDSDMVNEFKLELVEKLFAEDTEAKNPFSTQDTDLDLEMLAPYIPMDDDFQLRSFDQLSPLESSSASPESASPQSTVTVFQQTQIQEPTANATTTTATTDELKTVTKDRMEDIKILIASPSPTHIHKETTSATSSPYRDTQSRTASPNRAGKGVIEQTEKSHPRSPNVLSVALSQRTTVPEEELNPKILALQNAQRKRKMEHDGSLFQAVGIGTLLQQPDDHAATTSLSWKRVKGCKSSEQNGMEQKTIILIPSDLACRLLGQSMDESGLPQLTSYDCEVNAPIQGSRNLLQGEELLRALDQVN

Cc1ccc(C(=O)COC(=O)c2cccc(NC(=O)c3ccc([N+](=O)[O-])cc3[N+](=O)[O-])c2)cc1 [3-[[(2,4-dinitrophenyl)-oxomethyl]amino]benzoic acid [2-(4-methylphenyl)-2-oxoethyl] ester]
IC50: 2600 nM
